How the values were obtained:
[1] = Chemical analysis of blood of rabbits fed 1% cholesterol diets; format: in vivo, New Zealand White rabbits; details: 6 weeks; for lowering of total plasma cholesterol level as compared to the comparative group: 0.1% in 1% cholesterol diet
Experimental: 24 three-month-old New Zealand White rabbits (Yeonam Horticulture and Animal Husbandry College, Korea), each weighing about 2.5 to 2.6 kg, were raised under a condition of temperature 20±2° C., relative humidity 55±5%, and photoperiod 12L/12D. […] RC4 diet comprises 7.6% moisture, 22.8% crude protein, 2.8% crude fat, 8.8% crude ash, 14.4% crude cellulose and 43.6% soluble nitrogen-free substances. Rutin and quercetin were purchased from Sigma Co. (St. Louis, Mo.).
The rabbits were fed for 6 weeks while being allowed free access to the diets and water.
After six weeks, the rabbits were anesthetized with an intramuscular injection of ketamine (50 mg/kg) in the femoral region and sacrificed. A blood sample was taken from the heart of each rabbit, allowed to stand for 2 hours and centrifuged at 3,000 rpm for 15 minutes and the supernatant serum was separated and stored in a freezer before use.
The chemical analysis of blood was carried out by employing a blood chemical analyzer (CIBA Corning 550 Express, USA) to determine the changes in GOT, GPT, γ-GTP, total cholesterol and triglyceride levels.

HMG-CoA reductase = target: T1, HMG-CoA reductase (Rattus norvegicus, UniProt P51639); experiment: HMG-CoA reductase activity assay on liver microsomes of the fed rats; format: biochemical; details: liver microsomes of rats fed 0.1% test substance in 1% cholesterol diet, versus control group
T1 construct: the supernatant was ultracentrifuged at 100,000×g for 60 minutes to obtain microsomal precipitates; from tissue; host or cells: liver microsomes of the fed rats
T1 sequence (P51639 1-887): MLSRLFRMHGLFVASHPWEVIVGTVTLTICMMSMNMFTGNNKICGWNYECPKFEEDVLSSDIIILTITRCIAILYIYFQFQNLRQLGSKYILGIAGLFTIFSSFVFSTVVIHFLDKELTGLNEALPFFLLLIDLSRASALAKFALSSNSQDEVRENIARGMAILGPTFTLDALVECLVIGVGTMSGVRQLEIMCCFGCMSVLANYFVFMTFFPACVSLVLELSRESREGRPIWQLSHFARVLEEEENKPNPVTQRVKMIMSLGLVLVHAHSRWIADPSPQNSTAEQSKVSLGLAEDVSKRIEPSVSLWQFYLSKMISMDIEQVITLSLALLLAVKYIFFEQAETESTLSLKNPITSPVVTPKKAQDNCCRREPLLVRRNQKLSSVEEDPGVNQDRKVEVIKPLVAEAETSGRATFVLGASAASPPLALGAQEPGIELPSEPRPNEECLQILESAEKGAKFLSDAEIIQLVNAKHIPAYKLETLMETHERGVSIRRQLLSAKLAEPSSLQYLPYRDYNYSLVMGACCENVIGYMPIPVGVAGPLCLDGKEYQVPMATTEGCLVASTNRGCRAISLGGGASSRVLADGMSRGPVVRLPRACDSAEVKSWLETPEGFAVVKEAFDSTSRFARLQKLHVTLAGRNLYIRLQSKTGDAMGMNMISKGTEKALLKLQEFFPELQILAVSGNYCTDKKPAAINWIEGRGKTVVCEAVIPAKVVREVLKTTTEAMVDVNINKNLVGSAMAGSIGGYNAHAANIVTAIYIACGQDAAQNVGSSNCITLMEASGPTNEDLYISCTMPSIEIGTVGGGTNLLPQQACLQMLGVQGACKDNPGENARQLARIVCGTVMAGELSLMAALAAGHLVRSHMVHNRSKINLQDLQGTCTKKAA
Experimental: In order to determine the activity of HMG-COA reductase, Hulcher's method was employed after some modification (see J. Lipid Res., 14, 625-641(1973)). In this method, the concentration of the coenzyme-A (CoA-SH), which is produced when HMG-CoA is reduced to a mevalonate salt by the action of HMG-CoA reductase, is determined by spectroscopy and the activity of HMG-CoA reductas e is calculated therefrom.
3g of liver tissue taken from each group of rats of Example 2 was washed successively with 100 ml of a cold saline (0.15M NaCl) and 100 ml of a cold buffer solution A (0.1M triethanolamine, HCl/0.2M EDTA/2 mM dithiothreitol (DTT)). The cold buffer solution A was added to the liver tissue in an amount of 2 ml per 1 g of the liver tissue and the mixture was homogenized with a homogenizer. The homogenate was centrifuged at 15,000×g for 15 minutes, and then, the supernatant was ultracentrifuged at 100,000×g for 60 minutes to obtain microsomal precipitates. The precipitates thus obtained was washed with a cold buffer solution A and kept in a 1.5 ml tube at −70° C. […]
Then, the reactant was mixed with 20 μl of DTNB buffer solution (3mM DTNB/0.1M triethanolamine/0.2M EDTA, pH 7.4) and the absorbance of the mixture was determined at 412 nm to calculate the amount of CoA-SH (activity of HMG-CoA reductase activity).

[2] = Plasma total cholesterol, HDL-cholesterol and neutral lipid in rats fed high-cholesterol diets; format: in vivo, Sprague-Dawley rats; details: six weeks
Experimental: 30 three-week-old white Sprague-Dawley rats (Taihan laboratory animal center, Korea), each weighing about 90 to 110 g, were evenly divided into three dietary groups by a randomized block design.
The rats were allowed to feed freely on the specified diet together with water for six weeks, the ingestion amount was recorded daily and the,rats were weighed every 7 days, and then the record was analyzed.
The rats of the dietary groups obtained in Step 1 were sacrificed and blood samples were taken therefrom. The blood was allowed to stand for 2 hours and centrifuged at 3,000 rpm for 15 minutes and the supernatant was separated and stored in a deep freezer before use. The chemical analysis of blood was carried out by employing a blood chemical analyzer (CIBA Corning 550 Express, USA) to determine the changes in total cholesterol, HDL-cholesterol and triglyceride levels.

[3] = 1% cholesterol diet plus 0.1% rutin or quercetin or 1 mg/kg Lovastatin
[4] = 1% cholesterol diet plus 0.1% test substance

Compound	lowering of total plasma cholesterol level as compared to the comparative group [1] [%]	TG (triglyceride) [1, 3] [mg/dL]	Total-C (total cholesterol) [1, 3] [mg/dL]	Inhibition of HMG-CoA reductase activity (%) (HMG-CoA reductase)	increase of HDL-C/Total-C ratio compared with control group ([2]; 0.1% in 1% cholesterol diet) [%]	reduction of neutral lipid content compared with control group ([2]; 0.1% in 1% cholesterol diet) [%]	reduction of total plasma cholesterol level compared with control group ([2]; 0.1% in 1% cholesterol diet) [%]	HDL-C (HDL-cholesterol) [2, 4] [mg/dL]	HDL-C/Total-C ratio (row head is a formula, MATH:00001) [2, 4]	TG (triglyceride) [2, 4] [mg/dL]	Total-C (total cholesterol) [2, 4] [mg/dL]	GOT [1, 3] [IU/l]	GPT [1, 3] [IU/l]	γ-GTP [1, 3] [IU/l]
O=c1c(O)c(-c2ccc(O)c(O)c2)oc2cc(O)cc(O)c12 [Quercetin, quercetin]	30	30.0	820.0	30	54	17	30	41 ± 3	43	81 ± 4	95 ± 5	–	–	–
C[C@@H]1O[C@@H](OC[C@H]2O[C@@H](Oc3c(-c4ccc(O)c(O)c4)oc4cc(O)cc(O)c4c3=O)[C@H](O)[C@@H](O)[C@@H]2O)[C@H](O)[C@H](O)[C@H]1O [Rutin]	30	35.3	798.2	40	–	20	21	36 ± 2	–	78 ± 3	–	87.0	33.9	1.92

From US6562866B1 (priority 1998, dated 2003)
